Assay results: ChEMBL document CHEMBL5338775, “Discovery of a Novel Class of PROTACs as Potent and Selective Estrogen Receptor α Degraders to Overcome Endocrine-Resistant Breast Cancer In Vitro and In Vivo” (J Med Chem, 2023)
pIC50, pKi: −log10 of the molar value. Calls of active or inactive are those of the source. No cut-off for these calls is given here.

What was measured:
[1] = molecular target: T1, Estrogen receptor beta (Homo sapiens, UniProt Q92731); assay: Binding affinity to ERbeta (unknown origin) assessed as relative binding affinity incubated for 2 hrs by fluorescence polarization assay relative to estradiol
T1 sequence (Q92731 whole entry): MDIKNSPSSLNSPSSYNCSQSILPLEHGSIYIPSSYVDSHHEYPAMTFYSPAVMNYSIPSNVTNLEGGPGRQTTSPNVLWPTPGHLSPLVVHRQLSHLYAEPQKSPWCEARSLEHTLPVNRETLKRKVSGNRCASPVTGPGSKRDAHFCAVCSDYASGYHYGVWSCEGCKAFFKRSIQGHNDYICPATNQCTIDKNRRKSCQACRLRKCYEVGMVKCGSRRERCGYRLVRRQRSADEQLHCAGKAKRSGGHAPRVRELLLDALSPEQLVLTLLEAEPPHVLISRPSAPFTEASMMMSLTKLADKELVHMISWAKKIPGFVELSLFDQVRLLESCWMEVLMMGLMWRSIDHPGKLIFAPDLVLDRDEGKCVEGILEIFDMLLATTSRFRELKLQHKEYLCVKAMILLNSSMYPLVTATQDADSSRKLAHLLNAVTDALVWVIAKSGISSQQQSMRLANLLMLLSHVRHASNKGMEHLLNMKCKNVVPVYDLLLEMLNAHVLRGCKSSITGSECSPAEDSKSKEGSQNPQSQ

[2] = Selectivity ratio of relative binding affinity for ERalpha (unknown origin) to relative binding affinity to ERbeta (unknown origin)
[3] = Selectivity index, ratio of Ki for ERalpha (unknown origin) to Ki for ERbeta (unknown origin)
[4] = molecular target: T2, von Hippel-Lindau disease tumor suppressor/Estrogen receptor (Homo sapiens) (UniProt P03372+P40337); assay: PROTAC activity at VHL/wild type ERalpha in ER-positive human MCF7 cells assessed as induction of ERalpha degradation at 1 uM incubated for 12 hrs by Western blot analysis; type: cell-based
T2 sequence (P40337 whole entry, looked up, one chain of several): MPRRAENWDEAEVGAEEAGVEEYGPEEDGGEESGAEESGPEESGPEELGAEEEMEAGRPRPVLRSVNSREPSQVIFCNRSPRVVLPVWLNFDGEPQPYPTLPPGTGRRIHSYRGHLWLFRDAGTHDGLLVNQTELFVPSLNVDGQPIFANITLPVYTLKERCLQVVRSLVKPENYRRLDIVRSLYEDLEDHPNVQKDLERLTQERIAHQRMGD

[5] = molecular target: T2, von Hippel-Lindau disease tumor suppressor/Estrogen receptor (Homo sapiens); assay: PROTAC activity at VHL/wild type ERalpha in ER-positive human T47D cells assessed as induction of ERalpha degradation at 2 uM incubated for 12 hrs by Western blot analysis; type: cell-based
[6] = molecular target: T2, von Hippel-Lindau disease tumor suppressor/Estrogen receptor (Homo sapiens); assay: PROTAC activity at VHL/ERalpha in ER-positive human tamoxifen-resistant LCC2 cells assessed as induction of ERalpha degradation at 2 uM incubated for 12 hrs by Western blot analysis; type: cell-based; details: tamoxifen-resistant LCC2 cell
[7] = molecular target: T2, von Hippel-Lindau disease tumor suppressor/Estrogen receptor (Homo sapiens); assay: PROTAC activity at VHL/ERalpha in ER-positive human MCF7 cells assessed as induction of ERalpha degradation at 0.01 to 10 uM incubated for 12 hrs by Western blot analysis; type: cell-based; details: dose 0.01-10 µM
[8] = molecular target: T2, von Hippel-Lindau disease tumor suppressor/Estrogen receptor (Homo sapiens); assay: PROTAC activity at VHL/ERalpha in ER-positive human MCF7 cells assessed as induction of ERalpha degradation at 1 uM incubated for 12 hrs in presence of N-ethyl-5,6-bis(4-hydroxyphenyl)-N-(4-methoxyphenyl)-7-oxabicyclo[2.2.1]hept-5-ene-2-sulfonamide by Western blot analysis; type: cell-based
[9] = molecular target: T2, von Hippel-Lindau disease tumor suppressor/Estrogen receptor (Homo sapiens); assay: PROTAC activity at VHL/ERalpha in ER-positive human MCF7 cells assessed as induction of ERalpha degradation at 1 uM incubated for 12 hrs in presence of (2S,4R)-1-[(2S)-2-amino-3,3-dimethylbutanoyl]-4-hydroxy-N-[(1S)-1-[4-(4-methyl-1,3-thiazol-5-yl)phenyl]ethyl]pyrrolidine-2-carboxamide by Western blot analysis; type: cell-based
[10] = molecular target: T2, von Hippel-Lindau disease tumor suppressor/Estrogen receptor (Homo sapiens); assay: PROTAC activity at VHL/ERalpha in ER-positive human MCF7 cells assessed as induction of ERalpha degradation at 1 uM incubated for 12 hrs in presence of proteasome inhibitor, MG132 by Western blot analysis; type: cell-based
[11] = molecular target: von Hippel-Lindau disease tumor suppressor/Estrogen receptor beta (Homo sapiens) (UniProt Q92731+P40337); assay: PROTAC activity at VHL/ERbeta in human NCI-H1975 cells assessed as induction of ERbeta degradation at 1 to 10 uM incubated for 12 hrs by Western blot analysis; type: cell-based; details: dose 1-10 µM
von Hippel-Lindau disease tumor suppressor/Estrogen receptor beta (Homo sapiens), sequence (P40337 whole entry, looked up): as the sequence (P40337 whole entry, looked up, one chain of several) above
von Hippel-Lindau disease tumor suppressor/Estrogen receptor beta (Homo sapiens), sequence (Q92731 whole entry, looked up): as the sequence (Q92731 whole entry) above

[12] = test system: MCF7; assay: Induction of apoptosis in human MCF7 cells at 1 to 10 uM incubated for 24 hrs by Annexin V-FITC/PI staining based analysis; type: functional, cell-based; details: dose 1-10 µM
[13] = test system: MCF7; assay: Induction of cell cycle arrest in human MCF7 cells at 1 to 10 uM incubated for 24 hrs; type: functional, cell-based; details: dose 1-10 µM
[14] = test system: MCF7; assay: Antitumor activity against human tamoxifen-sensitive MCF7 cells xenografted in BALB/c nude mouse assessed as inhibition of tumor growth at 1 to 10 micromol/kg, ip administered once every 2 days and measured every 2 days; type: functional, organism-based; details: dose 1-10 µmol/kg
[15] = Toxicity in BALB/c nude mouse xenografted with human tamoxifen-sensitive MCF7 cells assessed as reduction in body weight at 1 to 10 micromol/kg, ip administered once every 2 days and measured every 2 days; type: organism-based; details: in vivo, 48 h, dose 1-10 µmol/kg
[16] = Toxicity in BALB/c nude mouse xenografted with human tamoxifen-sensitive MCF7 cells assessed as mortality at 1 to 10 micromol/kg, ip administered once every 2 days and measured every 2 days; type: organism-based; details: in vivo, 48 h, dose 1-10 µmol/kg
[17] = Toxicity in BALB/c nude mouse xenografted with human tamoxifen-sensitive MCF7 cells assessed as pathological changes in heart at 1 to 10 micromol/kg, ip administered once every 2 days by H and E staining based assay; type: organism-based; details: in vivo, 48 h, dose 1-10 µmol/kg
[18] = Toxicity in BALB/c nude mouse xenografted with human tamoxifen-sensitive MCF7 cells assessed as pathological changes in liver at 1 to 10 micromol/kg, ip administered once every 2 days by H and E staining based assay; type: organism-based; details: in vivo, 48 h, dose 1-10 µmol/kg
[19] = Toxicity in BALB/c nude mouse xenografted with human tamoxifen-sensitive MCF7 cells assessed as pathological changes in kidney at 1 to 10 micromol/kg, ip administered once every 2 days by H and E staining based assay; type: organism-based; details: in vivo, 48 h, dose 1-10 µmol/kg
[20] = test system: Mus musculus; assay: In vivo protac activity at VHL/ERalpha in BALB/c nude mouse xenografted with human tamoxifen-sensitive MCF7 cells assessed as reduction in ERalpha protein levels in tumor at 1 to 10 micromol/kg, ip administered once every 2 days by Western blot analysis; type: functional, organism-based; details: dose 1-10 µmol/kg
[21] = test system: MCF7; assay: Antitumor activity against human tamoxifen-sensitive MCF7 cells xenografted in BALB/c nude mouse assessed as increase in tumor necrosis area at 5 micromol/kg, ip administered once every 2 days by […] staining based analysis; type: functional, organism-based; details: dose 5.0 µmol/kg
[22] = test system: MCF7; assay: Antitumor activity against human tamoxifen-sensitive MCF7 cells xenografted in BALB/c nude mouse assessed as reduction in cell proliferation at 5 micromol/kg, ip administered once every 2 days by ki67 staining based analysis; type: functional, organism-based; details: dose 5.0 µmol/kg
[23] = test system: tamoxifen-resistant LCC2 cell; assay: Antitumor activity against human ER-positive tamoxifen-resistant LCC2 cells xenografted in BALB/c nude mouse assessed as reduction in tumor growth at 5 micromol/kg, ip administered once every 2 days and measured every 2 days; type: functional, organism-based; details: dose 5.0 µmol/kg
[24] = test system: T47D; assay: Inhibition of nascent GREB1 RNA synthesis in human T47D cells incubated for 6 hrs by 4-thiouridine incorporation assay; type: functional, cell-based
[25] = test system: T47D; assay: Inhibition of nascent IGFBP4 RNA synthesis in human T47D cells incubated for 6 hrs by 4-thiouridine incorporation assay; type: functional, cell-based
[26] = molecular target: T3, Estrogen receptor (Homo sapiens) (UniProt P03372); assay: Inhibition of ERalpha binding to DNA in human T47D cells assessed as reduction in protein occupancy incubated for 6 hrs by ChIP-seq analysis; type: cell-based
T3 sequence (whole entry): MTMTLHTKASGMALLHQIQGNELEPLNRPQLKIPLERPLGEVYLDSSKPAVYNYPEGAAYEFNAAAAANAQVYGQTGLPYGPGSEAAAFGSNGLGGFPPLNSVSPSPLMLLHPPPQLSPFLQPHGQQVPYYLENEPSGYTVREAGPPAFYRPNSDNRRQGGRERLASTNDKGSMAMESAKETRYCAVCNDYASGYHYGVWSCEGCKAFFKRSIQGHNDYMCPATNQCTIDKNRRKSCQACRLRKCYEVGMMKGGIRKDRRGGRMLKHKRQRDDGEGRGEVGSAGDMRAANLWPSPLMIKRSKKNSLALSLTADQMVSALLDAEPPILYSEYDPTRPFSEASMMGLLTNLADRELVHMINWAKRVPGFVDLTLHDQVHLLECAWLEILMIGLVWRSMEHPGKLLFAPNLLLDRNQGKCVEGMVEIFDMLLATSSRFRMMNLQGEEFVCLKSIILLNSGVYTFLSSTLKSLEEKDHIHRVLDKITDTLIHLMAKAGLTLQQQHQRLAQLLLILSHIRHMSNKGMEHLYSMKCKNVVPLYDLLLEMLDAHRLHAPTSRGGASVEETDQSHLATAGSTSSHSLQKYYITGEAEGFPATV

[27] = test system: T47D; assay: Inhibition of gene transcription in human T47D cells assessed as reduction in Pol II occupancy at GREB1 promoter region by ChIP-seq analysis; type: functional, cell-based
[28] = test system: T47D; assay: Inhibition of gene transcription in human T47D cells assessed as reduction in Pol II occupancy at IGFBP4 promoter region by ChIP-seq analysis; type: functional, cell-based
[29] = test system: T47D; assay: Inhibition of gene transcription in human T47D cells assessed as reduction in H3K27ac levels in GREB1 promoter region by ChIP-seq analysis; type: functional, cell-based
[30] = test system: T47D; assay: Inhibition of gene transcription in human T47D cells assessed as reduction in H3K27ac levels in IGFBP4 promoter region by ChIP-seq analysis; type: functional, cell-based
[31] = molecular target: T4, Estrogen receptor (Homo sapiens, UniProt P03372)
T4 sequence (P03372 whole entry): T3 sequence (whole entry)

[32] = molecular target: T1, Estrogen receptor beta
[33] = test system: MCF7; assay: cells; details: Homo sapiens, MCF7, 72 h
[34] = cells; details: Homo sapiens, Tamoxifen-resistant LCC2 cell, 72 h
[35] = test system: T47D; assay: cells; details: Homo sapiens, 72 h
[36] = test system: T47D; assay: cells; details: Homo sapiens, 72 h; remark: listed apart in the source
[37] = test system: T47D; assay: cells; details: Homo sapiens, 72 h; remark: listed apart in the source
[38] = test system: MDA-MB-231; assay: cells; details: Homo sapiens, MDA-MB-231, 72 h
[39] = in vitro; details: human, MCF-10A cells

CCN(c1ccc(OCCCCCC(=O)N[C@H](C(=O)N2C[C@H](O)C[C@H]2C(=O)N[C@@H](C)c2ccc(-c3scnc3C)cc2)C(C)(C)C)cc1)S(=O)(=O)C1CC2OC1C(c1ccc(O)cc1)=C2c1ccc(O)cc1 (some centres undefined)
RBA [1]: 0.06%
Selectivity ratio [2]: 1.33
Ratio Ki [3]: 5.16
Activity [4]: Active
Activity [5]: Active
Activity [6]: Active
Activity [7]: Active
Activity [8]: inactive
Activity [9]: inactive
Activity [10]: inactive
Activity [11]: inactive
Activity [12]: Active
Activity [13]: Active
inhibition [14]: Active
Activity [15]: Non-Toxic
Activity [16]: Non-Toxic
Activity [17]: Non-Toxic
Activity [18]: Non-Toxic
Activity [19]: Non-Toxic
Activity [20]: Active
Activity [21]: Active
Activity [22]: Active
Activity [23]: Active
inhibition [24]: Active
inhibition [25]: Active
inhibition [26]: Active
inhibition [27]: Active
inhibition [28]: Active
inhibition [29]: Active
inhibition [30]: Active
pKi [31]: 5.60
pKi [32]: 4.88
pIC50 [33]: 6.51
pIC50 [34]: 4.91
pIC50 [35]: 5.12
pIC50 [36]: 5.09
pIC50 [37]: 5.02
pIC50 [38]: < 4.00
IC50 at 72 h [39]: > 100 µM
